Data published in US11413302B2, “Use of carrimycin or active ingredients thereof and use thereof” (SHENYANG FUYANG PHARMACEUTICAL TECHNOLOGY CO., LTD., priority 2018, dated 2022).

Assays:
rats induced by Aβ1-42 [1] = test: rat new-object-distinguishing experiment, Aβ1-42 AD model; set-up: species or system Sprague Dawley rats; details: in vivo
Experimental: (§3) The mice were randomly divided into 6 groups, a sham-operation control group, a model group, three groups were fed with 25, 50 and 100 mg/kg of carrimycin, and one group was fed with 30 mg/kg of the positive drug resveratrol.
(§4) Experimental process: Aβ1-42 was dissolved by using a hexafluoroisopropanol/sterile normal-saline solution to obtain the concentration of 2 μg/μL, incubated and aged at 4° C. for 24 h to form a AO oligomer, and reserved. […] 2.5 μL, (0.5 μL/min) was injected within 5 min into each side of the hippocampus, and the needle was retained for 5 min, to result in a rat dementia model.
On the next day after the model was established, the sham-operation control group and the model group were administered intragastrically by using the corresponding solvents, the other experimental groups were administered intragastrically by using 25, 50 and 100 mg/kg of carrimycin and 30 mg/kg of the positive drug resveratrol. […]
The rat new-object-distinguishing experiment: on the 14-15th day after the administration, the new-object-distinguishing experiment was performed on the groups of rats. […] The test was performed on the third day, in which each time one rat was placed into the open field to firstly freely explore for 3min, and was then taken out, 2 same objects (A1, A2) were placed into the center of the open field, the rat was placed into the open field, and the durations (tA1, tA2) during which the rat exploreed the two objects within 5 min were recorded. After 1 h, the object A2 was replaced with a new object B, the rat was placed into the open field again, and the durations (tA1, tB) during which the rat explored the two objects were recorded. After 24 h, the object B was replaced with an object C, the rat was placed into the open field again, and the durations (tA1, tC) during which the rat explored the two objects were recorded. […] The preferential index and the discrimination index to the new objects are calculated. […]

rats induced by Aβ1-42 [2] = test: rat Morris water-maze experiment, Aβ1-42 AD model; format: in vivo, Sprague Dawley rats; details: 30 mg/kg
Experimental: as §3, §4
On the next day after the model was established, the sham-operation control group and the model group were administered intragastrically by using the corresponding solvents, the other experimental groups were administered intragastrically by using 25, 50 and 100 mg/kg of carrimycin and 30 mg/kg of the positive drug resveratrol. On the 12th day after Aβ1-42 was injected into the hippocampus, the experiments of Y maze, new-object distinguishing and water maze were carried out in sequence. Continue to administer during the behavioral experiment 1 time per day till the behavioristics end.
The rat water-maze experiment: on the 16-20th day after the administration, the Morris water-maze experiment was performed on the groups of rats. The Morris water-maze experiment aims at investigating the influence by Carrimycin on the space studying memory disorder. The water-maze apparatus is composed of a black stainless-steel circular water pool with the diameter of 1.5 meters and the height of 50 centimeters and a circular metal platform with the diameter of 10 centimeters, and the platform can freely move. Before the experiment, the water pool was filled with water (water temperature 24±1° C.) to cause the water level to be above the platform by 1 centimeter. In the training phase, training is performed 1 time in the morning and afternoon per day for 6 days. […]

rats induced by Aβ1-42 [3] = test: rat Y-maze experiment, Aβ1-42 AD model; format: in vivo, Sprague Dawley rats; details: 30 mg/kg
Experimental: The rat Y-maze experiment: on the 12th day after the administration, the Y-maze experiment was performed on the groups of rats. […] In the experiment, the rats were placed into the tip of the arm A, and were permitted to freely enter and leave the three arms. The total time quantity of entering the arms and the order of entering the arms within 8 min of each of the rats were recorded. By using the continuous entering into the three different arms as one correct alternate reaction, the time quantity of the correct alternate reactions was recorded. The spontaneous alternate reaction rate is used to reflect the capacity of space working memory.

diabetes mouse [4] = test: fasting blood sugar of alloxan diabetes mice; format: in vivo, Kunming mice; details: 200 mg/kg
Experimental: (§1) The study on the effect of Carrimycin on reducing blood sugar comprises Kunming mice was selected, single intraperitoneal injection with 160 mg/kg of alloxan was subjected to Kunming mice to form model mice. The mice whose values of blood sugar are stable at the modeling level (10˜25mmol/L) were selected, divided randomly into a model control group, a positive control group (200 mg/kg of metformin) and an administration group (with Carrimycin as the drug, 25, 50 and 100 mg/kg). Simultaneously a normal control group was provided, and was given gastric normal saline.
(§2) After the model was made and gavage was given for 30 and 45 days, the mice were fasted for 16 hours, and the mice were weighed. After weighing, blood was collected at the tail tip, and the fasting blood sugar was measured by using a blood-sugar meter. After the value of fasting blood sugar was measured, the […] were administered by intragastric administration once. After 2 h, mice in each group were given a glucose solution by gavage at 2 g/kg, and blood was collected at the tip of the tail. The blood sugar values at 0, 0.5 and 2 h were measured after the administration of glucose (Bg0, Bg0.5 and Bg2), and the area (AUC) (reaction sugar tolerance) under the blood sugar curve was calculated by using the following formula: AUC=0.25*(Bg0+4*Bg0.5+3*Bg2); and […]

diabetes mouse [5] = test: sugar tolerance of diabetes mouse (glucose 2 g/kg by gavage); format: in vivo, Kunming mice; details: 200 mg/kg; for Blood sugar value 0 h: 0 h after glucose; for Blood sugar value 0.5 h: 0.5 h after glucose; for Blood sugar value 2 h: 2 h after glucose
Experimental: as §1, §2

diabetes mouse [6] = test: fasting insulin (ELISA) and insulin resistance of alloxan diabetes mice; format: in vivo, Kunming mice; details: 200 mg/kg; 45 days; fasting blood sugar*fasting insulin/22.5
Experimental: as §1
After the model was made and gavage was given for 45 days, the mice were fasted for 16 h, and blood was collected from the fundus venous plexus. Before taking blood, the capillary was moistened with heparin, 0.5 ml of blood was collected from the fundus venous plexus, centrifuged at 3500 r/min for 10 min, and plasma was separated for testing. The supernatant was sucked, and the insulin was measured by using the ELISA method. […]
The measurement of the insulin resistance: after the concentrations of fasting blood sugar and insulin have been measured, the insulin resistance was calculated by using the formula: insulin resistance=fasting blood sugar*fasting insulin/22.5 (it is recently reported that when it is>2.6, it is determined that insulin resistance exists).

[7] = body weight of alloxan diabetes mice; format: in vivo, Kunming mice; details: 200 mg/kg, gavage
Experimental: as §1, §2

INS-1 cell = test: protection of INS-1 islet cell against alloxan damage (MTT); format: cell-based, Rat; details: 0.5 mM; 24 mmol/L alloxan damage, 24 h
Experimental: the INS-1 cell was the adherent cell, the INS-1 cell in the logarithmic growth phase was used, digested by using trypsin, beated by using a complete medium, and prepared into a single-cell suspension. The cell concentration was adjusted to be 1*10^5/ml, and the cell was inoculated into the 96-well culture plate with 100 μl per well, cultured in the incubator at 5% CO2 and 37° C. for 24 h. The cells were grouped according to the demands of the experiment, the cell of the administration groups were administered with 24 mmol/L of alloxan damage, simultaneously were administered with the drug to be tested Carrimycin with different concentrations (0.2, 0.4 and 0.8 mM), 4 complex wells for each of the concentrations were provided, and all groups were continued to be cultured at 37° C. for 24 h. Additionally a normal control group (no medication administered), a model group (merely administered with alloxan damage) and a positive control group (based on the alloxan treatment, 0.5 mmol/L of metformin was added) were provided. […] And the optical density of all groups were measured by using a microplate reader at 492 nm.
The survival rate of the INS-1 cell treated by the drug is calculated by using the following formula: Survival rate of INS cell (%)=A492 (administration group)/A492 (normal control group)×100%

In the case of `Oc1ccc(C=Cc2cc(O)cc(O)c2)cc1` [Resveratrol, resveratrol], the “Discrimination index on A1 and A2 (%)” value (rats induced by Aβ1-42 [1]) is reported as 52.87 ± 5.43%, the “discrimination indexes on the new objects” value (rats induced by Aβ1-42 [1]) is reported as “significantly increased” and the “preferential indexes on the new objects” value (rats induced by Aβ1-42 [1]) is reported as “significantly increased”. For the same compound, the escape latent periods (rats induced by Aβ1-42 [2]; 2nd day, trend maintained on 3rd and 4th days, compared with the model group, FIG. 7) was “significantly decreased”, the swimming speeds (rats induced by Aβ1-42 [2]; between groups, FIG. 9) was “did not have a significant difference” and the “time quantities of passing through of the platform” value (rats induced by Aβ1-42 [2]; compared with the model group, FIG. 8) was “significantly increased”. For the same compound, the “total time quantities of entering the arms” value (rats induced by Aβ1-42 [3]; between groups, FIG. 2) was “did not have a significant difference” and the “Y-maze spontaneous alternate reaction rate” value (rats induced by Aβ1-42 [3]; compared with the model group, FIG. 1) was “significantly increased”.
With `CN(C)C(=N)N=C(N)N` [metformin] the “blood sugar, 0 day” value (diabetes mouse [4]; 0 day) was 18.07 ± 1.26^*** mmol/L, the “blood sugar, 30th day” value (diabetes mouse [4]; 30th day, fasted 16 h) was 14.94 ± 1.03^**# mmol/L and the “blood sugar, 45th day” value (diabetes mouse [4]; 45th day, fasted 16 h) was 10.24 ± 1.07^*## mmol/L. For the same compound, the “AUC under the blood sugar curve” value (diabetes mouse [5]; 30th day) was 33.6 ± 2.7^**#, the “Blood sugar value 0 h” value (diabetes mouse [5]; 30th day) was 14.6 ± 1.4^** and the “Blood sugar value 0.5 h” value (diabetes mouse [5]; 30th day) was 19.8 ± 1.8^**##. The “Blood sugar value 2 h” value (diabetes mouse [5]; 30th day) was 13.5 ± 1.9^**#, the “AUC under the blood sugar curve” value (diabetes mouse [5]; 45th day) was 32.3 ± 2.1^**# and the “Blood sugar value 0 h” value (diabetes mouse [5]; 45th day) was 14.1 ± 1.5^**. The “Blood sugar value 0.5 h” value (diabetes mouse [5]; 45th day) was 18.9 ± 1.7^**#, the “Blood sugar value 2 h” value (diabetes mouse [5]; 45th day) was 13.2 ± 1.7^**# and the “Insulin resistance (IR)” value (diabetes mouse [6]) was 1.06^**###. For the same compound, the “Body weight gain on 30th day” value [7] was 5.94 ± 1.03 g, the “Body weight gain on 45th day” value [7] was 7.26 ± 1.48 g and the “Survival rate (%)” value (INS-1 cell) was 92.91 ± 6.69 %.
